# Measurements reported in patent US11884675B2, “Heterocyclic compounds as triggering receptor expressed on myeloid cells 2 agonists and methods of use” (AMGEN INC., priority 2020, dated 2024).
# Biological target: hTREM2 (Homo sapiens, UniProt Q9NZC2)
# Experiment: TREM2 agonist potency by Syk phosphorylation (AlphaLisa) in HEK293T-hTREM2 cells, used for Examples 306-429
# Assay type: cell-based
# Parameters: expressed in transfected cells; host or cells: HEK293T (HEK293T-hTREM2 cells)
# Details: HEK293 Cells
# Summary of the method: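 HEK293T cells expressing human TREM2 and DAP12, plated 20-24 h before, were exposed to compounds for 45 min at room temperature, then lysed. Phospho-Syk read by AlphaLisa; % activation from a standard curve and EC50 from a four-parameter log(agonist) fit.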
# Sequence of hTREM2 (Q9NZC2 19-230): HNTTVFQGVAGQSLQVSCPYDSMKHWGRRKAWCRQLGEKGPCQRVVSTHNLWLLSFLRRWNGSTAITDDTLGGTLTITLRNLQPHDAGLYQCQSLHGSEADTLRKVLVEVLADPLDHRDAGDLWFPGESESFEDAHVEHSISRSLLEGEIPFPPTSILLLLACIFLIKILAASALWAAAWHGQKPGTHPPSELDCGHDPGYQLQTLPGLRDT
# Sequence of hTREM2 (O43914 22-113 partner): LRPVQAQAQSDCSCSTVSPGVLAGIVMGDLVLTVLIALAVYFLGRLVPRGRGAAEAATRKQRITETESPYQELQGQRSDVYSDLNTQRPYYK
row,Structure (SMILES),EC50 [nM]
1,"Cc1cnc2c(C34CC(C(F)(F)F)(C3)C4)nc(N3C[C@@H](C)O[C@@H](c4cnn(C5CC5)c4)C3)cc2n1 (racemic) [Example 377, 2-(1-cyclopropylpyrazol-4-yl)-6-methyl-4-[2-methyl-5-[3-(trifluoromethyl)-1-bicyclo[1.1.1]pentanyl]pyrido[3,4-b]pyrazin-7-yl]morpholine]",50 to 500
2,"Cc1nc2nc(C3CCOC(c4cnn(C5CC5)c4)C3)cc(-c3ccc(Cl)cc3F)c2nc1C (stereo not drawn) [Example 402, 8-(4-chloro-2-fluorophenyl)-6-(2-(1-cyclopropyl-1H-pyrazol-4-yl)tetrahydro-2H-pyran-4-yl)-2,3-dimethylpyrido[2,3-b]pyrazine]",≤ 50
3,"Cc1nc2nc(N3C[C@@H](c4cnn(C5CC5)c4)O[C@@H](C)C3)nc(-c3ccc(Cl)cc3F)c2nc1C [Example 424, (2R,6S)-4-(4-(4-chloro-2-fluorophenyl)-6,7-dimethylpteridin-2-yl)-2-(1-cyclopropyl-1H-pyrazol-4-yl)-6-methylmorpholine]",≤ 50
4,"Cc1nc2nc(N3C[C@H](C)O[C@@H](c4cnn(C5CC5)c4)C3)nc(-c3ccc(Cl)cc3F)c2nc1C (racemic) [Example 372, 4-(4-(4-chloro-2-fluorophenyl)-6,7-dimethylpteridin-2-yl)-2-(1-cyclopropyl-1H-pyrazol-4-yl)-6-methylmorpholine]",≤ 50
5,"Cc1cnc2c(-c3ccc(F)cc3F)nc([C@H]3CCO[C@H](c4cnn(C5CC5)c4)C3)nc2n1 [Example 339, 2-((2S,4S)-2-(1-cyclopropyl-1H-pyrazol-4-yl)tetrahydro-2H-pyran-4-yl)-4-(2,4-difluorophenyl)-7-methylpteridine]",50 to 500
6,"Cc1nc2nc(N3C[C@@H](c4cnn(C5CC5)c4)O[C@@H](C)C3)nc(-c3ccc(F)cc3F)c2nc1C [Example 426, (2R,6S)-2-(1-cyclopropyl-1H-pyrazol-4-yl)-4-(4-(2,4-difluorophenyl)-6,7-dimethylpteridin-2-yl)-6-methylmorpholine]",≤ 50
7,"Cc1ccc2c(C34CC(C(C)C)(C3)C4)nc([C@H]3CCO[C@@H](c4cnn(C5CC5)c4)C3)nc2n1 [Example 428, 2-((2R,4S)-2-(1-cyclopropyl-1H-pyrazol-4-yl)tetrahydro-2H-pyran-4-yl)-4-(3-isopropylbicyclo[1.1.1]pentan-1-yl)-7-methylpyrido[2,3-d]pyrimidine]",50 to 500
8,"Cc1nc2nc(N3C[C@@H](C)O[C@@H](c4cnn(C5CC5)c4)C3)nc(-c3ccc(Cl)cc3F)c2nc1C (racemic) [Example 373, 4-(4-(4-chloro-2-fluorophenyl)-6,7-dimethylpteridin-2-yl)-2-(1-cyclopropyl-1H-pyrazol-4-yl)-6-methylmorpholine]",≤ 50
9,"Cc1nc2nc([C@@H]3CCO[C@@H](c4cnn(C5CC5)c4)C3)nc(C34CC(C(F)(F)F)(C3)C4)c2nc1C (stereo in doubt) [Example 365, 2-(2-(1-cyclopropyl-1H-pyrazol-4-yl)tetrahydro-2H-pyran-4-yl)-6,7-dimethyl-4-(3-(trifluoromethyl)bicyclo[1.1.1]pentan-1-yl)pteridine]",50 to 500
10,"Cc1cnc2c(C34CC(C(F)(F)F)(C3)C4)nc([C@H]3CCO[C@@H](c4cnn(C5CC5)c4)C3)cc2n1 (racemic) [Example 386, 2-methyl-7-[2-(1-cyclopropylpyrazol-4-yl)tetrahydropyran-4-yl]-5-[3-(trifluoromethyl)-1-bicyclo[1.1.1]pentanyl]pyrido[3,4-b]pyrazine]",≤ 50
11,"Cc1cnc2c(-c3ccc(Cl)cc3F)nc(N3C[C@H](C)O[C@@H](c4cnn(C5CC5)c4)C3)nc2n1 (racemic) [Example 374, 4-(4-(4-chloro-2-fluorophenyl)-7-methylpteridin-2-yl)-2-(1-cyclopropyl-1H-pyrazol-4-yl)-6-methylmorpholine]",≤ 50
12,"Cc1nc2nc([C@@H]3CCO[C@@H](c4cnn(C5CC5)c4)C3)nc(-c3ccc(F)cc3Cl)c2nc1C [Example 321, 4-(2-chloro-4-fluorophenyl)-2-((2R,4R)-2-(1-cyclopropyl-1H-pyrazol-4-yl)tetrahydro-2H-pyran-4-yl)-6,7-dimethylpteridine]",50 to 500
13,"Cc1nc2nc([C@H]3CCO[C@@H](c4cnn(C5CC5)c4)C3)nc(C34CC(C(F)(F)F)(C3)C4)c2nc1C (stereo in doubt) [Example 366, 2-(2-(1-cyclopropyl-1H-pyrazol-4-yl)tetrahydro-2H-pyran-4-yl)-6,7-dimethyl-4-(3-(trifluoromethyl)bicyclo[1.1.1]pentan-1-yl)pteridine]",≤ 50

# Next, values leading:
row,EC50 [nM],Structure (SMILES)
1,≤ 50,"Cc1cc([C@H]2C[C@@H](c3nc(-c4ccc(Cl)c(F)c4F)c4nc(C)c(C)nc4n3)CCO2)ccn1 [Example 397, 4-(4-chloro-2,3-difluorophenyl)-6,7-dimethyl-2-((2R,4S)-2-(2-methylpyridin-4-yl)tetrahydro-2H-pyran-4-yl)pteridine]"
2,≤ 50,"Cc1cnc2c(-c3ccc(F)cc3F)nc(N3C[C@@H](C)O[C@@H](c4cnn(C5CC5)c4)C3)cc2n1 (racemic) [Example 362, 2-(1-cyclopropyl-1H-pyrazol-4-yl)-4-(5-(2,4-difluorophenyl)-2-methylpyrido[3,4-b]pyrazin-7-yl)-6-methylmorpholine]"
3,≤ 50,"Cc1cc([C@H]2CN(c3nc(-c4ccc(Cl)c(F)c4F)c4nc(C)c(C)nc4n3)CCO2)ccn1 [Example 363, (S)-4-(4-(4-chloro-2,3-difluorophenyl)-6,7-dimethylpteridin-2-yl)-2-(2-methylpyridin-4-yl)morpholine]"
4,500 to 3000,"Cc1cc(C2CN(c3cc4nc(C)cnc4c(C45CC(C(F)(F)F)(C4)C5)n3)CCO2)ccn1 (stereo not drawn) [Example 376, 2-(2-methyl-4-pyridyl)-4-[2-methyl-5-[3-(trifluoromethyl)-1-bicyclo[1.1.1]pentanyl]pyrido[3,4-b]pyrazin-7-yl]morpholine]"
5,50 to 500,"Cc1cc([C@H]2C[C@@H](c3cc4nc(C)cnc4c(-c4ccc(Cl)cc4F)n3)CCO2)ccn1 (racemic) [Example 310, 5-(4-chloro-2-fluorophenyl)-2-methyl-7-(2-(2-methylpyridin-4-yl)tetrahydro-2H-pyran-4-yl)pyrido[3,4-b]pyrazine]"
6,≤ 50,"Cc1cc(C2CN(c3cc4nc(C)c(C)cc4c(-c4ccc(F)cc4F)n3)CCO2)ccn1 (stereo not drawn) [Example 346, 4-(5-(2,4-difluorophenyl)-2,3-dimethyl-1,6-naphthyridin-7-yl)-2-(2-methylpyridin-4-yl)morpholine]"
7,≤ 50,"Cc1nc2cc(N3CCOC(c4cnn(C5CC5)c4)C3)nc(-c3ccc(Cl)cc3F)c2nc1C (stereo not drawn) [Example 348, 4-(5-(4-chloro-2-fluorophenyl)-2,3-dimethylpyrido[3,4-b]pyrazin-7-yl)-2-(1-cyclopropyl-1H-pyrazol-4-yl)morpholine]"
8,50 to 500,"Cc1cnc2c(-c3ccc(F)cc3F)nc(N3C[C@H](C)O[C@@H](c4cnn(C5CC5)c4)C3)cc2n1 (racemic) [Example 361, 2-(1-cyclopropyl-1H-pyrazol-4-yl)-4-(5-(2,4-difluorophenyl)-2-methylpyrido[3,4-b]pyrazin-7-yl)-6-methylmorpholine]"
9,≤ 50,"Cc1cc([C@H]2CN(c3nc(-c4cc(F)c(Cl)cc4F)c4nc(C)c(C)nc4n3)CCO2)ccn1 [Example 387, (2S)-4-[4-(4-chloro-2,5-difluoro-phenyl)-6,7-dimethyl-pteridin-2-yl]-2-(2-methyl-4-pyridyl)morpholine]"
10,50 to 500,"Cc1nc2cc(N3C[C@H](C)O[C@@H](c4cnn(C5CC5)c4)C3)nc(C34CC(C(F)(F)F)(C3)C4)c2nc1C (racemic) [Example 378, 2-(1-cyclopropylpyrazol-4-yl)-4-[2,3-dimethyl-5-[3-(trifluoromethyl)-1-bicyclo[1.1.1]pentanyl]pyrido[3,4-b]pyrazin-7-yl]-6-methyl-morpholine]"
11,≤ 50,"Cc1cc(C2CN(c3nc(-c4cc(F)c(Cl)cc4F)c4nc(C)c(C)nc4n3)CCO2)ccn1 (stereo not drawn) [Example 352, 4-(4-(4-chloro-2,5-difluorophenyl)-6,7-dimethylpteridin-2-yl)-2-(2-methylpyridin-4-yl)morpholine]"
12,50 to 500,"Cc1nc2cc(N3CC(C)OC(c4cnn(C5CC5)c4)C3)nc(-c3ccc(Cl)cc3F)c2nc1C (stereo not drawn) [Example 367, 4-(5-(4-chloro-2-fluorophenyl)-2,3-dimethylpyrido[3,4-b]pyrazin-7-yl)-2-(1-cyclopropyl-1H-pyrazol-4-yl)-6-methylmorpholine]"
13,≤ 50,"Cc1cc(C2CN(c3cc4nc(C)c(C)cc4c(-c4ccc(C(F)(F)F)nc4)n3)CCO2)ccn1 (stereo not drawn) [Example 347, 4-(2,3-dimethyl-5-(6-(trifluoromethyl)pyridin-3-yl)-1,6-naphthyridin-7-yl)-2-(2-methylpyridin-4-yl)morpholine]"
14,≤ 50,"Cc1cc(C2CN(c3cc4nc(C)c(C)nc4c(-c4ccc(C(F)(F)F)nc4)n3)CCO2)ccn1 (stereo not drawn) [Example 312, 4-(2,3-dimethyl-5-(6-(trifluoromethyl)pyridin-3-yl)pyrido[3,4-b]pyrazin-7-yl)-2-(2-methylpyridin-4-yl)morpholine]"
15,≤ 50,"COc1cc(C2CN(c3nc(-c4ccc(Cl)cc4F)c4nc(C)c(C)nc4n3)CCO2)ccn1 (stereo not drawn) [Example 314, 4-(4-(4-chloro-2-fluorophenyl)-6,7-dimethylpteridin-2-yl)-2-(2-methoxypyridin-4-yl)morpholine]"
16,≤ 50,"COc1cc(C2CN(c3nc(-c4ccc(C(F)(F)F)nc4)c4nc(C)c(C)nc4n3)CCO2)ccn1 (stereo not drawn) [Example 322, 4-(6,7-dimethyl-4-(6-(trifluoromethyl)pyridin-3-yl)pteridin-2-yl)-2-(2-methoxypyridin-4-yl)morpholine]"
17,50 to 500,"Cc1cc(C2CC(c3nc(-c4ccc(C(F)(F)F)nc4)c4ccc(C)nc4n3)CCO2)ccn1 (stereo not drawn) [Example 324, 7-methyl-2-(2-(2-methylpyridin-4-yl)tetrahydro-2H-pyran-4-yl)-4-(6-(trifluoromethyl)pyridin-3-yl)pyrido[2,3-d]pyrimidine]"
